# Literature values, collected in US11053249B2, “Proteasome inhibiting β-lactam prodrugs useful for the treatment of cancer and neurodegenerative disorders” (Vita Api, priority 2016, dated 2021).
# Conditions: Hogan & Corey, 2005, 2007
smiles,measurement,value
CC(C)C(O)[C@@]12NC(=O)[C@H](CCCl)[C@@H]1NC2=O (stereo partly drawn) [initial β-lactam],experimental infrared C═O stretching frequency,1756 cm⁻¹
